Consider 101 compounds from PubChem BioAssay AID1648 (Sanford-Burnham Center for Chemical Genomics, 2009).

SMILES strings stand for the structures. Calls of active or inactive are those of the source. No rule for the calls is given here. Bounds are passed on as bounds.

Sequence of Serine/threonine-protein kinase mTOR (Homo sapiens) (P42345 2015-2114): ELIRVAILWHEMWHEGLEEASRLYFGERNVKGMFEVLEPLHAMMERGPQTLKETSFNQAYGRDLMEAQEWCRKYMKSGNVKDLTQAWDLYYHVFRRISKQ

This test concerns the target Serine/threonine-protein kinase mTOR (Homo sapiens) (UniProt P42345). The test can be described thus: mTOR FRB domain ligand binding – biophysical, NMR (AID 1648). The following applies: NMR binding to FRB domain, chemical shift.
One may read the Kd as a measure of binding affinity in units of concentration. In the case of `COC(=O)c1ccccc1NC(=O)c1cc[n+]([O-])cc1`, the Kd was > 4 mM (inactive).
For the compound `O=C(CN1CCOCC1)Nc1nccs1`, the Kd is > 4 mM (inactive).
Turning to `O=C(Cc1c(F)cccc1Cl)Nc1ccncc1`, the Kd was > 4 mM (inactive).
Regarding `Cc1cc(O)c2c(c1)C(=O)c1cccc(O)c1C2=O`, the Kd was > 4 mM (inactive).
With `Cc1c(C(=O)NCc2ccccn2)oc2ccccc12`, the Kd is > 4 mM (inactive).
Take `c1csc(-c2nn[nH]n2)c1`: the Kd was > 4 mM (inactive).
`CC(=O)Nc1sccc1C(=O)NC(N)=O`: the Kd is > 4 mM (inactive).
Take `Cn1nc(C(C)(C)C)cc1N`: the Kd was > 4 mM (inactive).
In the case of `CCc1noc(C)c1C(=O)Nc1ncc(C)s1`, the Kd is > 4 mM (inactive).
Regarding `O=C(O)CCCCCCCC(=O)O`, the Kd is > 4 mM (inactive).
`Cc1cc(C)n(CC(=O)O)n1`: the Kd was > 4 mM (inactive).
Take `Cc1ccc(SCCN2C(=O)NC(C)(C)C2=O)cc1`: the Kd is > 4 mM (inactive).
Turning to `Cc1nnc(Nc2ccc(S(N)(=O)=O)cc2)[nH]c1=O`, the Kd is > 4 mM (inactive).
As to `Nc1nc2n(c1C(=O)c1ccccc1)CCC2`, the Kd is > 4 mM (inactive).
Take `O=C1Cn2c(nc3ccccc32)N1c1ccccc1F`: the Kd is > 4 mM (inactive).
Take `CC(=O)OCC(OC(C)=O)C(OC(C)=O)C(OC(C)=O)C(OC(C)=O)C(COC(C)=O)OC(C)=O` (stereo unspecified): the Kd is > 4 mM (inactive).
On to `Cn1c(O)c(C2=NC(=S)NC2=O)c2ccccc21`, for which the Kd is > 4 mM (inactive).
Take `C=C1C([C@]2(C)C(CC(=O)OC)[C@@](C)(COC(C)=O)OC(=O)C[C@@H]2OC(C)=O)[C@@H](OC=O)[C@H](OC(=O)C(OC(C)=O)C(C)CC)[C@@]2(C)[C@H](c3ccoc3)CC(=O)C12O` (stereo partly specified): the Kd was > 4 mM (inactive).
For `NC1=NC(=O)/C(=C\c2ccco2)S1`, the Kd is > 4 mM (inactive).
`Nc1nc(SCc2ccc3c(c2)OCCO3)n[nH]1`: the Kd is > 4 mM (inactive).
Regarding `NC(=O)NCCCC(N)C(=O)O` (stereo unspecified), the Kd was > 4 mM (inactive).
For `COc1cccc(NC(=O)c2cccs2)c1` the value was > 4 mM (inactive); for `NC(=O)CSc1nnc(-c2ccncc2)o1`, > 4 mM (inactive); for `C=CCc1ccc2c(c1)OCO2`, > 4 mM (inactive).
With `Nc1cc(F)cc(F)c1`, the Kd is > 4 mM (inactive).
With `COc1cccc(N2CCN(C(=O)c3cccnc3)CC2)c1`, the Kd is > 4 mM (inactive).
With `O=C(Cc1cccs1)Nc1ccon1`, the Kd is > 4 mM (inactive).
With `CCCCCCCCCCCC[C@H](C(=O)O)[C@@H](C)C(=O)O`, the Kd is > 4 mM (inactive).
As to `Cc1nc(-c2cnccn2)sc1C(=O)O`, the Kd is > 4 mM (inactive).
`c1ccc(Cc2nnc3sc(-c4cccnc4)nn23)cc1`: the Kd was > 4 mM (inactive).
As to `CCOC(=O)C1CN(C)CCN1C` (stereo unspecified), the Kd is > 4 mM (inactive).
On to `O=c1cc(-c2ccccc2)oc2c(O)c(O)ccc12`, for which the Kd is > 4 mM (inactive).
With `CN(C)C(=S)Nc1ccc([N+](=O)[O-])cc1`, the Kd is > 4 mM (inactive).
As to `O=C(O)CNC(=O)c1ccccc1`, the Kd was > 4 mM (inactive).
Next, `O=C(NCc1ccccc1)c1cnsn1`: > 4 mM (inactive); `Cn1nnc2cc(C(=O)Nc3cccnc3)ccc21`: > 4 mM (inactive).
For `NC(=O)C1CCN(C(=O)c2ccccc2F)CC1` the value was > 4 mM (inactive); for `Cc1cc(O)cc(=O)n1CCCC(=O)O`, > 4 mM (inactive).
As to `CN(C)C(=O)Nc1ccc2c(c1)nnn2C`, the Kd was > 4 mM (inactive).
As for `O=C(Nc1cnccn1)c1cccs1`, the Kd is > 4 mM (inactive).
For the compound `Nc1ccc(O)cn1`, the Kd was > 4 mM (inactive).
Regarding `Cc1nc2ccccc2c(=O)n1CCCO`, the Kd is > 4 mM (inactive).
On to `COc1ccc(-c2oc3cc(O[C@H]4O[C@H](CO)[C@@H](O)[C@H](O)[C@H]4O)c(OC)c(O)c3c(=O)c2OC)cc1O`, for which the Kd is > 4 mM (inactive).
On to `COc1ccc(Cl)cc1NC(=O)c1ccco1`, for which the Kd was > 4 mM (inactive).
Regarding `O=C(Nc1cnccn1)c1ccncc1`, the Kd was > 4 mM (inactive).
Next, `Cc1ccccc1-n1c(N)cc(=O)[nH]c1=S`: > 4 mM (inactive); `Cn1nc(-c2ccccc2)cc1N`: > 4 mM (inactive); `O=C(O)CSc1nnc(-c2cccs2)o1`: > 4 mM (inactive).
Consider `Cc1cc(C)n2c(SCc3c(C)noc3C)nnc2n1`, for which the Kd was > 4 mM (inactive).
For `CC1CCN(C(=O)c2ccc3c(c2)OCCO3)CC1`, the Kd was > 4 mM (inactive).
For `COc1ccc2c(c1)OCC(Cc1ccc(OC)c(OC)c1)C2=O` (stereo unspecified) the value was > 4 mM (inactive); for `Cc1sc2nc(SC3CCOC3=O)[nH]c(=O)c2c1C` (stereo unspecified), > 4 mM (inactive); for `CC(=O)Oc1cc2c(C(C)=O)coc2c2ccccc12`, > 4 mM (inactive).
Take `CN1CCOc2cc(C(=O)O)ccc21`: the Kd is > 4 mM (inactive).
Turning to `O=C(CSc1ncnc2ccccc12)NCCCO`, the Kd is > 4 mM (inactive).
For the compound `C[C@@H]1CC[C@@]2(OC1)OC1C(O)C3C4CC[C@H]5C[C@H](O[C@@H]6O[C@H](CO)[C@H](O[C@@H]7O[C@H](CO)[C@@H](O)[C@H](O[C@@H]8OC[C@@H](O)[C@H](O)[C@H]8O)[C@H]7O[C@@H]7O[C@H](CO)[C@H](O)[C@H](O[C@@H]8O[C@H](CO)[C@@H](O)[C@H](O)[C@H]8O)[C@H]7O)[C@H](O)[C@H]6O)[C@H](O)C[C@]5(C)C4CC[C@]3(C)C1[C@@H]2C` (stereo partly specified), the Kd was > 4 mM (inactive).
Regarding `CCOc1ccc(C(=O)c2ccc(O)c(O)c2O)cc1`, the Kd is > 4 mM (inactive).
On to `CCOc1ccc2ccccc2c1C(=O)N1CCOCC1`, for which the Kd was > 4 mM (inactive).
Take `CO[C@H]1[C@@H](O)[C@@H](C)O[C@H](O[C@H]2CCC3(C)C4CCC5(C)[C@@H](C6=CC(=O)OC6)CC[C@]5(O)[C@@H]4CC[C@]3(O)C2)[C@@H]1O` (stereo partly specified): the Kd was > 4 mM (inactive).
On to `Cn1cccc1C(=O)NS(=O)(=O)c1ccccc1Cl`, for which the Kd was > 4 mM (inactive).
Consider `O=C(O)CCCCCCCCCCCCC1C=CCC1` (stereo unspecified), for which the Kd is > 4 mM (inactive).
For `Cc1ccnc(NS(=O)(=O)c2ccccc2)n1` the value was > 4 mM (inactive); for `O=c1c2ccccc2nc2n1CCC2O` (stereo unspecified), > 4 mM (inactive).
As to `Nc1cc(-c2ccco2)[nH]n1`, the Kd was > 4 mM (inactive).
Next, `CNC(=O)C(=O)Nc1ccc(F)cc1`: > 4 mM (inactive); `NC(=NCCC[C@H](N)C(=O)O)NC(CCC(=O)O)C(=O)O` (stereo partly specified): > 4 mM (inactive); `CC(=O)c1ccc[nH]1`: > 4 mM (inactive).
`C=CCc1ccc(OC(=O)c2ccccc2)c(OC)c1`: the Kd is > 4 mM (inactive).
Consider `Nc1ccc2c(c1)N1CCN=C1S2`, for which the Kd was > 4 mM (inactive).
For `O=C(O)C1CCN(C(=O)c2cccs2)CC1` the value was > 4 mM (inactive).
On to `CC(=O)Nc1ccc(NC(=O)/C=C\C(=O)O)cc1`, for which the Kd is > 4 mM (inactive).
As to `CC(=O)O[C@]1(C)CC[C@@]23CC1C(C)(C)[C@@H]2CC[C@H]3C`, the Kd was > 4 mM (inactive).
Next, `COC1=CC23CCCN2CCc2cc4c(cc2C3C1O)OCO4` (stereo unspecified): > 4 mM (inactive).
With `NCc1ccc(N2CCOCC2)cc1`, the Kd was > 4 mM (inactive).
As for `C=CCSCC=C`, the Kd is > 4 mM (inactive).
In the case of `CCOC(=O)c1cnc2sccn2c1=O`, the Kd is > 4 mM (inactive).
For `O=C(Cc1cccs1)Nc1ccccn1`, the Kd was > 4 mM (inactive).
For `O=C(O)CSCC(=O)Nc1cccc(O)c1` the value was > 4 mM (inactive); for `O=C1c2ccccc2C(=O)N1Cc1ccco1`, > 4 mM (inactive).
Take `CSc1ccccc1NC(=O)c1c(C)noc1C`: the Kd is > 4 mM (inactive).
Take `CCOC(=O)CC1Sc2ccccc2NC1=S` (stereo unspecified): the Kd is > 4 mM (inactive).
In the case of `NCc1cccc2nsnc12`, the Kd is > 4 mM (inactive).
Consider `C=C[C@@](C)(O)CCC1C(=C)CCC2[C@@](C)(CO)CCC[C@]12C` (stereo partly specified), for which the Kd was > 4 mM (inactive).
Take `O=C(Nc1ccc(N2CCOCC2)cc1)C1CC1`: the Kd is > 4 mM (inactive).
Take `COC(=O)c1cn(C(=O)OC)c2ccccc12`: the Kd is > 4 mM (inactive).
As for `O=C(NCCO)c1cc2ccccc2c(=O)s1`, the Kd is > 4 mM (inactive).
With `C[C@]12CCC(=O)C=C1CCC1C2C(=O)C[C@@]2(C)C1CC[C@]2(O)C(=O)CO` (stereo partly specified), the Kd was > 4 mM (inactive).
For `Cc1ccc(C(=O)Nn2cnnc2)c(Cl)c1` the value was > 4 mM (inactive); for `COc1ccc2c(c1)OC/C(=C/c1ccc(O)c(O)c1)C2=O`, > 4 mM (inactive); for `OCc1ccc2nsnc2c1`, > 4 mM (inactive).
Consider `Oc1cc(O)c2c(c1)O[C@H](c1ccc(O)c(O)c1)[C@H](O)C2`, for which the Kd was > 4 mM (inactive).
For `CN(C)S(=O)(=O)N1CCc2ccccc21`, the Kd was > 4 mM (inactive).
As for `Cc1cc(C)n(-c2ccc(N)cc2)n1`, the Kd was > 4 mM (inactive).
For `O=C(O)c1ccc2c(c1)OCCO2` the value was > 4 mM (inactive); for `O=C(NCO)c1ccc([N+](=O)[O-])cc1`, > 4 mM (inactive); for `C=C1C2CC[C@@]3(C)[C@H](c4ccoc4)OC(=O)C[C@]13O[C@H]1CC(=O)C(C)(C)[C@H](C(OC(C)=O)C(=O)OC)[C@@]21C` (stereo partly specified), > 4 mM (inactive).
Turning to `CS(=O)(=O)Cc1ccccc1`, the Kd is > 4 mM (inactive).
For `CC1=NN(c2ccc(N)cc2)C(=O)C1` the value was > 4 mM (inactive); for `O=c1ccn(Cc2ccccc2)c(=O)[nH]1`, > 4 mM (inactive).
For `O=C(Nc1ccon1)c1sc2cc(F)ccc2c1Cl`, the Kd is > 4 mM (inactive).
Take `Nc1ccccc1OC(F)(F)F`: the Kd was > 4 mM (inactive).
